Data taken from patent US6949561B1, “Steroid 3-O-sulphamate derivatives as inhibitors of oestrone sulphatase” (Sterix Limited, priority 1997, dated 2005).

Columns and labels:
[1] = target: T1, Rat Liver Sulphatase (E1-STS) (Rattus norvegicus, UniProt P15589); test: In vivo inhibition (rat liver sulphatase); details: 2 mg/Kg/day × 5 days, oral dose
T1 construct: from tissue; host or cells: rat liver after oral dosing
T1 sequence (P15589 20-577): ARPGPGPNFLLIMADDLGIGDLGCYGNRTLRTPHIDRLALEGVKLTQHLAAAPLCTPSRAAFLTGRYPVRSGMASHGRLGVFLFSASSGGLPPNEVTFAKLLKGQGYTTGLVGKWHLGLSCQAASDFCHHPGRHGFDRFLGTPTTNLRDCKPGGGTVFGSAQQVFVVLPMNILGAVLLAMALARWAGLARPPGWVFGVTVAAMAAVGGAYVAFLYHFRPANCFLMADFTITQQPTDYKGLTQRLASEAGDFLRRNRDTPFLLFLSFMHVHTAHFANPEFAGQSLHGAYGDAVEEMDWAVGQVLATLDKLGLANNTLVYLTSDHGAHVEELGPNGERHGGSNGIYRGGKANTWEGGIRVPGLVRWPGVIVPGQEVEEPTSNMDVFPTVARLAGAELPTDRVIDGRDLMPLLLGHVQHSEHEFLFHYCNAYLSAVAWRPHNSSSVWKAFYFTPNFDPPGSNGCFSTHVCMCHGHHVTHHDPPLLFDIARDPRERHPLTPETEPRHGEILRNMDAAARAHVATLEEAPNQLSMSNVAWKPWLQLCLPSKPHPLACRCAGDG

[2] = target: T2, Steroid sulphatase (Steryl Sulphatase EC 3.1.6.2; E1-STS) in intact MCF-7 human breast cancer cells (Homo sapiens, UniProt P08842); details: 0.1 μM; known from prior art; cited from earlier work
T2 construct: endogenous in cells; host or cells: MCF-7 human breast cancer cells
T2 sequence (P08842 22-583): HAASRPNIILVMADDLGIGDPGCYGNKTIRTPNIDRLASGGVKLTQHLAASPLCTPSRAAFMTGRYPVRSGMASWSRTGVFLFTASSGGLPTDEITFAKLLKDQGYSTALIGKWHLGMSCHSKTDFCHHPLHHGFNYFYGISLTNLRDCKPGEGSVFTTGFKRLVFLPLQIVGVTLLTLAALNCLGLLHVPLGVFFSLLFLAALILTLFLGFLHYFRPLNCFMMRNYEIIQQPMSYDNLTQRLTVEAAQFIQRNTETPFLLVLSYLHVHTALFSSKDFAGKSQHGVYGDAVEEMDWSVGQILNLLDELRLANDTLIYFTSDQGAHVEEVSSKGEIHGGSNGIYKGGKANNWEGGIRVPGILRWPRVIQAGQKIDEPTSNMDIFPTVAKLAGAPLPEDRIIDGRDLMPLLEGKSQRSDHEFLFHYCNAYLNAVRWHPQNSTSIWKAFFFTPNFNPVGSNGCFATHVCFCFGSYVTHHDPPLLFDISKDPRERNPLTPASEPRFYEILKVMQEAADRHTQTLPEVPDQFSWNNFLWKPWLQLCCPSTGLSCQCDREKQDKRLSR

[3] = target: T1, Rat Liver Sulphatase (E1-STS); details: administered either orally or subcutaneously; prior art; cited from earlier work
[4] = target: T3, dehydroepiandrosterone sulphatase (DHA-STS) (Rattus norvegicus, UniProt P15589); details: administered either orally or subcutaneously; prior art; cited from earlier work
T3 construct: host or cells: rat liver (in vivo dosing)
T3 sequence (P15589 20-577): T1 sequence (P15589 20-577)

memory = details: rats; prior art; cited from earlier work
E1-STS enzyme = target: T4, E1-STS enzyme (Homo sapiens, UniProt P08842); details: prior art; cited from earlier work
T4 sequence (P08842 22-583): T2 sequence (P08842 22-583)

[5] = cited from earlier work

**Q.** What does the source list for CC12CCC3c4ccc(OS(N)(=O)=O)cc4CCC3C1CCC2=O (stereo not drawn) [EMATE, oestrone-3-sulphamate]?
**A.** In Vivo Inhibition (Rat Liver Sulphatase) [1]: 99.1±0.2%; inhibition of E1-STS activity in intact MCF-7 cells [2]: more than 99%; inhibition of rat liver E1-STS activity [3]: 99%; inhibition of rat liver DHA-STS activity [4]: 99%; memory enhancing effect (memory): memory enhancing effect; mode of E1-STS inhibition (E1-STS enzyme): time- and concentration-dependent manner

**Q.** With C[C@]12CC[C@@H]3c4ccc(OS(=O)(=O)O)cc4CC[C@H]3[C@@H]1CCC2=O [Compound E1S, oestrone sulphate] as the compound, how does the half-life in blood [5] read?
**A.** 10 to 12 h

**Q.** Which “mode of E1-STS inhibition” value (E1-STS enzyme) does the source give for oestrone-3-N-sulphamate here?
**A.** weaker non-time-dependent inactivators

**Q.** Which “mode of E1-STS inhibition” value (E1-STS enzyme) does the source give for oestrone-3-S-sulphamate here?
**A.** weaker non-time-dependent inactivators
